PMC7004565, “Nucleotide inhibition of the pancreatic ATP-sensitive K^+ channel explored with patch-clamp fluorometry” (eLife, 2020)
“And” between values parts separate entries of the source, which are not always exact repeats. Identical values can stand only once. Like-named read-outs stand apart in the source and are kept apart here.

Columns and labels:
[1] = target: Kir6.2*,C166S-GFP + SUR1 (Homo sapiens, UniProt Q14654, C166S); test: Bayesian MWC-type model fits to combined patch-clamp fluorometry data; assay type: biochemical; parameters: ANAP labelling is specific and only full-length Kir6.2 is expressed at the cell membrane; expressed in transfected cells; host or cells: HEK-293T; conditions: for Kd: read-out: KA (intrinsic binding affinity to the closed state) (converted)
Sequence of Kir6.2*,C166S-GFP + SUR1 (Q14654 whole entry C166S): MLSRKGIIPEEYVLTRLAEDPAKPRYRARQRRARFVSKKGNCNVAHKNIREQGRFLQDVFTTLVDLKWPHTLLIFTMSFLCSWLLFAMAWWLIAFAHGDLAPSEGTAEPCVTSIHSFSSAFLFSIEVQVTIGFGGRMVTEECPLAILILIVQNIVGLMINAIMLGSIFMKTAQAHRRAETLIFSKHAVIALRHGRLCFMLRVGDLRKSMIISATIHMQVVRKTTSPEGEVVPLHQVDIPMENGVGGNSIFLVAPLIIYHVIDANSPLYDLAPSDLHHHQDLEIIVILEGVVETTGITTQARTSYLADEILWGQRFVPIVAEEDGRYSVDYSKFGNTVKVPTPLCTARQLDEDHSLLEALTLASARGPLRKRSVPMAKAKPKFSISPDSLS
Sequence of Kir6.2*,C166S-GFP + SUR1 (Q09428 whole entry partner): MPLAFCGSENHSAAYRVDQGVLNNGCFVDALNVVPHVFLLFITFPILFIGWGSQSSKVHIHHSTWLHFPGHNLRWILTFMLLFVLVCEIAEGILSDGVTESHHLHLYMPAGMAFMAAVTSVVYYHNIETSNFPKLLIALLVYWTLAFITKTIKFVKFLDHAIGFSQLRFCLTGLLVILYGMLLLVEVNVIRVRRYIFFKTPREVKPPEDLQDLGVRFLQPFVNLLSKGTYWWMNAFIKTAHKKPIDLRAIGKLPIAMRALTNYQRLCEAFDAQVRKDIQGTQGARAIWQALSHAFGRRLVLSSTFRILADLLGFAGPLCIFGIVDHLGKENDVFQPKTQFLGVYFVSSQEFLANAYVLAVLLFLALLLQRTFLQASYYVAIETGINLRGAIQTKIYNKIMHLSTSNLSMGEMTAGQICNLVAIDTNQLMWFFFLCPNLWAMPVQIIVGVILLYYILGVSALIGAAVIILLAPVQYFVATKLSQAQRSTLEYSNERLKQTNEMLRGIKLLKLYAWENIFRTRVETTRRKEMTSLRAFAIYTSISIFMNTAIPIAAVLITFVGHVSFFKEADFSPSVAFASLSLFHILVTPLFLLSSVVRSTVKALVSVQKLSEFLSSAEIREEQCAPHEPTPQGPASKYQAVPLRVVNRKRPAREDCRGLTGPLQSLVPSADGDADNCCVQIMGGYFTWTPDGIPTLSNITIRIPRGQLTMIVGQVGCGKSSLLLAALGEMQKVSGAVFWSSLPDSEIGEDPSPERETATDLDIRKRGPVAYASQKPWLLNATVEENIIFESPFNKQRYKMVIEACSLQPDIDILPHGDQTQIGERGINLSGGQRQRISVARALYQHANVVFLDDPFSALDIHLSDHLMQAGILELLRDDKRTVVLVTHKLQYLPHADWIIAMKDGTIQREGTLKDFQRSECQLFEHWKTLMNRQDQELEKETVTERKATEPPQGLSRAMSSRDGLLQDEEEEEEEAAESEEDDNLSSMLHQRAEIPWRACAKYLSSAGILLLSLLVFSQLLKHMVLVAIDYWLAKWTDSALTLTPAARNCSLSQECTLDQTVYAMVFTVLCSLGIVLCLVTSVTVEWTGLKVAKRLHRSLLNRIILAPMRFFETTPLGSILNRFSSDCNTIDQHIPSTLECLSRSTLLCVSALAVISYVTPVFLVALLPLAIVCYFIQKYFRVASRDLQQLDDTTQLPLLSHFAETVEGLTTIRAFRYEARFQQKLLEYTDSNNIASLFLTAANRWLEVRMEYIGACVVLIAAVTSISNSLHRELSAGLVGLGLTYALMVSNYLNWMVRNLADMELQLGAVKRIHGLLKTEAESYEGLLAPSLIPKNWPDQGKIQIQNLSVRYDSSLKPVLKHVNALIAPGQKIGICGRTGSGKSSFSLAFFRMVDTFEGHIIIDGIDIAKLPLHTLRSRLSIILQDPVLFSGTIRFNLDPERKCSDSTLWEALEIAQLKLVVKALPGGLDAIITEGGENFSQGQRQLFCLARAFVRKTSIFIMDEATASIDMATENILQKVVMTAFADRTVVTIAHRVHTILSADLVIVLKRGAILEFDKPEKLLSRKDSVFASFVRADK
From the text: (§1) Our simultaneous binding and current measurements were well fit with a Monod-Wyman-Changeux (MWC)-type model (Figure 2D,E; [Monod et al., 1965]) which has been previously proposed to explain KATP channel inhibition ([Enkvetchakul and Nichols, 2003]; [Craig et al., 2008]; [Vedovato et al., 2015]). In our MWC-type model, each ligand binding event ( KA ) is independent and each bound ligand favours the closed state by the same factor ( D ). Simultaneous measurement of binding (fluorescence) and gating (current) allowed us to obtain well constrained fits to our model. To obtain free parameter ( L , KA , D ) estimates and verify that each parameter was well and uniquely determined, we employed a Bayesian Markov chain Monte Carlo (MCMC) method previously employed by [Hines et al. (2014)]. Using this approach, we constructed posterior probability distributions for the free parameters of our MWC-type model (Figure 2F, Table 3). […] Our estimate of L was quite low and broadly distributed. We repeated our fits with L fixed to a value consistent with previous single channel measurements (0.8, Popen=0.45; [John et al., 1998]; [Enkvetchakul et al., 2000]; [Ribalet et al., 2006]). This had only a very small effect on our estimates of D and KA (Figure 2—figure supplement 1). The broad distribution of L in our fit may represent current rundown which occurs during our patch-clamp recordings and is expected to affect the open-closed equilibrium.
(§2) In addition to the full MWC-type model we considered alternate models (Figure 2—figure supplement 2). These included a model in which only the first binding event influences the open-closed equilibrium of the channel (single-binding model; Figure 2—figure supplement 2B, Table 3), and an MWC-style model with an additional parameter C to allow for direct negative cooperativity between binding sites (negative cooperativity model; Figure 2—figure supplement 2C, Table 3). The single-binding model yielded very similar parameter estimates to our full MWC-type model (Figure 2—figure supplement 2D, Table 3). This is a consequence of D being so low that even in the MWC-type model most channels are closed when only a single nucleotide is bound. The cooperative model improved our fits, but not enough to justify the inclusion of an additional free parameter (see Discussion).
(§3) The MWC-type models considered (Figure 2 and Figure 2—figure supplement 2) were formulated as follows:(3) F/Fmax=KA[TNPATP](1+KA[TNPATP])^3+LDKA[TNPATP](1+DKA[TNPATP])^3/(1+KA[TNPATP])^4+L(1+DKA[TNPATP])^4 (4) open channels/total channels=L(1+DKA[TNPATP])^4/(1+KA[TNPATP])^4+L(1+DKA[TNPATP])^4
(§4) The first was similar to the MWC-type model, except that the channels close after one molecule of TNP-ATP binding with subsequent binding events having no effect.(7) F/Fmax=LDKA[TNPATP](1+3KA[TNPATP]+3KA2[TNPATP]^2+KA3[TNPATP]^3)+KA[TNPATP](1+KA[TNPATP])^3/L(1+4DKA[TNPATP]+6DKA2[TNPATP]^2+4DKA3[TNPATP]^3+DKA4[TNPATP]^4)+(1+KA[TNPATP])^4 (8) I/Imax=L(1+4DKA[TNPATP]+6DKA2[TNPATP]^2+4DKA3[TNPATP]^3+DKA4[TNPATP]^4)/L(1+4DKA[TNPATP]+6DKA2[TNPATP]^2+4DKA3[TNPATP]^3+DKA4[TNPATP]^4)+(1+KA[TNPATP])^4⋅1+L/L
(§5) The second alternate model was the same as the full MWC model, but with an additional term C describing binding cooperativity between Kir6.2 subunits.(9) F/Fmax=LDKA[TNPATP](1+3CDKA[TNPATP]+3C^2D^2KA2[TNPATP]^2+C^3D^3KA3[TNPATP]^3)+KA[TNPATP](1+3CKA[TNPATP])+3C^2KA2[TNPATP]^2+C^3KA3[TNPATP]^3)/L(1+4DKA[TNPATP]+6CD^2KA2[TNPATP]^2+4C^2D^3KA3[TNPATP]^3+C^3D^4KA4[TNPATP]^4)+1+4KA[TNPATP]+6CKA2[TNPATP]^2+4C^2KA3[TNPATP]^3+C^3KA4[TNPATP]^4 (10) I/Imax=L(1+4DKA[TNPATP]+6CD^2KA2[TNPATP]^2+4C^2D^3KA3[TNPATP]^3+C^3D^4KA4[TNPATP]^4)/L(1+4DKA[TNPATP]+6CD^2KA2[TNPATP]^2+4C^2D^3KA3[TNPATP]^3+C^3D^4KA4[TNPATP]^4)+1+4KA[TNPATP]+6C^2KA2[TNPATP]^2+4C^2KA3[TNPATP]^3+C^3KA4[TNPATP]^4⋅1+L/L […]

[2] = target: Kir6.2-GFP + SUR1 (Homo sapiens, UniProt Q14654); test: as above; assay type: biochemical; parameters: full length, fully ANAP-labelled Kir6.2 protein was produced and successfully trafficked to the membrane in the presence of SUR1; expressed in transfected cells; host or cells: HEK-293T
Sequence of Kir6.2-GFP + SUR1 (Q14654 whole entry): as the sequence (Q14654 whole entry C166S) above, with S166C counted along it
Sequence of Kir6.2-GFP + SUR1 (Q09428 whole entry partner): as the sequence (Q09428 whole entry partner) above
From the text: as §1, §2, §3, §4, §5

[3] = Full MWC model, median estimate
[4] = Single-site (single-binding) model

## Nc1ncnc2c1ncn2[C@@H]1O[C@H](COP(=O)(O)OP(=O)(O)OP(=O)(O)O)[C@H]2OC3(O[C@H]21)C([N+](=O)[O-])=CC(=[N+]([O-])[O-])C=C3[N+](=O)[O-] (some centres unmarked) [TNP-ATP, trinitrophenyl-ATP]
[1]; [3]
  D (factor by which nucleotide binding favours channel closure): 0.84
  L (unliganded open-closed equilibrium constant): 0.29 log10
  Kd: 66.1 µM
[1]; Negative cooperativity model
  C (binding cooperativity between Kir6.2 subunits): 0.52
  D (factor by which nucleotide binding favours channel closure): 0.83
  L (unliganded open-closed equilibrium constant): 0.32 log10
  Kd: 37.2 µM
[1]; [4]
  D (factor by which nucleotide binding favours channel closure): 0.70
  L (unliganded open-closed equilibrium constant): 0.09 log10
  Kd: 70.8 µM
[2]; Full MWC model, PCF, inhibitory site on Kir6.2
  KA: 21000 M⁻¹
[2]; Full MWC model, from KA, read-out: KD
  Kd: 47.9 µM and 48 µM
[2]; Full MWC model, linear value
  L: 0.09
[2]; [3]
  D (factor by which nucleotide binding favours channel closure): 0.04
  L (unliganded open-closed equilibrium constant): −1.05 log10
[2]; Full MWC model, unliganded, from L
  Popen: 0.08
[2]; Negative cooperativity model
  C (binding cooperativity between Kir6.2 subunits): 0.17
  D (factor by which nucleotide binding favours channel closure): 0.15
  L (unliganded open-closed equilibrium constant): −0.42 log10
[2]; Negative cooperativity model, read-out: KA (intrinsic binding affinity to the closed state) (converted)
  Kd: 15.1 µM
[2]; [4]
  D (factor by which nucleotide binding favours channel closure): 0.05
  L (unliganded open-closed equilibrium constant): −1.06 log10
[2]; Single-site (single-binding) model, read-out: KA (intrinsic binding affinity to the closed state) (converted)
  Kd: 46.8 µM
